Article PMC2954893, “MHC Class I Bound to an Immunodominant Theileria parva Epitope Demonstrates Unconventional Presentation to T Cell Receptors” (PLoS Pathogens, 2010)

How the values were obtained:
[1] = tested on: Tp1_214–224-specific CD8+ T cell clones; assay: 4-hour 111Indium release cytotoxicity assay with peptide-pulsed target cells; assay type: cell-based, cattle; conditions: 22 CD8+ T cell clones; example in Fig S6
From the text: Twenty-two Tp1_214–224-specific CD8^+ T cell clones, derived from 2 T. parva-immune animals (641 and 633), were examined for their ability to recognize a series of Ala-substituted versions of Tp1_214–224 (as detailed in Fig 1), using a cytotoxicity assay. All clones gave near maximal levels of killing of cells pulsed with the native peptide (ranging from 21% to 100% for different clones) down to a concentration of 10 pg/ml (example shown in Fig S6). The results obtained with the Ala-substituted peptides tested at 1 ng/ml (i.e. well above the minimal concentration required to obtain maximal killing), are summarized in Fig 5. The most striking finding was the abolition (or near abolition) of recognition by all T cell clones of 2 or more of the peptides substituted at positions 6–9. Based on major effects on recognition of peptides substituted at positions 6, 7 and 8, the 22 clones fell into 4 groups each with broadly similar specificity. Nine clones were profoundly influenced by residues 6 and 8, seven clones by residues 7 and 8, four clones by residue 7 and two clones by residue 8. […] Substitutions at positions 3 and 4 also had substantial effects on recognition by some clones.
Figure 5 Effects of single alanine substitutions in the Tp1_214–224 epitope on recognition by specific CD8^+ T cell clones. […]

responding T cells = conditions: T. parva-immune A18-homozygous animals; cited from earlier work
From the text: Several CD8^+ T cell epitopes in T. parva have been identified recently, [17], [18]. […] This allele is expressed alone on the haplotype designated A18, which is common in the British Friesian breed. Although this is not the only single gene class I MHC haplotype in cattle, it remains an unu ...

N*01301 = assay: RMA-S MHC stabilization assay (peptide binding, pBL50); parameters: species or system cattle; conditions: RMA-S cells transfected with N*01301; peptides 0.1 nM to 1 mM; surface N*01301 detected with mAb IL-A88 by flow; reference peptide TIMPKDIQL
Experimental: A 9mer self-peptide (TIMPKDIQL) shown to have a high binding affinity to N*01301 was used throughout as a positive control in flow-based MHC stabilization assays (see Materials and Methods for details). In order to systematically explore the relative contribution to binding affinity made by amino acids at each position, a sequential alanine-scan of the self-peptide was made (Fig. 1A). Dose/FI curves were created for each peptide (using peptides at concentrations between 0.1 nM and 1 mM) and presented as semi-logarithmic plots as in previous studies ([25], supporting information (SI) Fig. S1). The high binders have low half-maximal binding level (BL50) values (high pBL50) and the low binders have high BL50 values (low pBL50). […]
RMA-S is a mouse lymphoma cell line with a deficiency in MHC class I antigen processing which has been used extensively to study binding of peptides to MHC class I [37]. […] Results are expressed as fluorescence index (FI) values. These were calculated as the test mean fluorescence intensity (MFI) minus the no-peptide isotype control MFI divided by the no-peptide N*01301-stained control MFI minus the no-peptide isotype control MFI. The half-maximal binding level (BL50), which is the peptide concentration yielding the half-maximal FI of the reference peptide in each assay, was calculated and presented as pBL50 (–logBL50). […]

Row | Sequence | peptide concentration down to which all clones gave near maximal killing [1] [pg/mL] | share of responding T cells specific for the peptide (responding T cells) | binding to N*01301 (pBL50 class) (N*01301)
1 | VGYPKVKEEML [Tp1_214–224] | 10 | over 75% | –
2 | TIMPKDIQL | – | – | high (for high binding >5 (BL50 <10^−5))
